We go through 1 molecule from US9809623B2, “α4β7 peptide monomer and dimer antagonists” (Protagonist Therapeutics, Inc., priority 2014, dated 2017).

The target of one series is α4β7 integrin (Homo sapiens, UniProt P13612+P26010). Description: Schild analysis, MAdCAM binding to immobilized α4β7 integrin by ELISA. The settings on record: global-fit Schild analysis. The method, then: Schild analysis was used to determine if Peptide X blocked MAdCAM binding to α4β7 integrin by a simple competitive mechanism. […] Based on the dose-response shifts, global-fit Schild analysis was used to determine the Schild slope and equilibrium dissociation constant (KB). The slope was ˜1, which indicated the inhibition is orthosteric antagonism with respect to MAdCAM, and not allosteric antagonism. […] The estimated KB value was 1 nM, which was similar to other Peptide X potency values in different assays.
Chain of α4β7 integrin (P13612 34-977 limits assumed): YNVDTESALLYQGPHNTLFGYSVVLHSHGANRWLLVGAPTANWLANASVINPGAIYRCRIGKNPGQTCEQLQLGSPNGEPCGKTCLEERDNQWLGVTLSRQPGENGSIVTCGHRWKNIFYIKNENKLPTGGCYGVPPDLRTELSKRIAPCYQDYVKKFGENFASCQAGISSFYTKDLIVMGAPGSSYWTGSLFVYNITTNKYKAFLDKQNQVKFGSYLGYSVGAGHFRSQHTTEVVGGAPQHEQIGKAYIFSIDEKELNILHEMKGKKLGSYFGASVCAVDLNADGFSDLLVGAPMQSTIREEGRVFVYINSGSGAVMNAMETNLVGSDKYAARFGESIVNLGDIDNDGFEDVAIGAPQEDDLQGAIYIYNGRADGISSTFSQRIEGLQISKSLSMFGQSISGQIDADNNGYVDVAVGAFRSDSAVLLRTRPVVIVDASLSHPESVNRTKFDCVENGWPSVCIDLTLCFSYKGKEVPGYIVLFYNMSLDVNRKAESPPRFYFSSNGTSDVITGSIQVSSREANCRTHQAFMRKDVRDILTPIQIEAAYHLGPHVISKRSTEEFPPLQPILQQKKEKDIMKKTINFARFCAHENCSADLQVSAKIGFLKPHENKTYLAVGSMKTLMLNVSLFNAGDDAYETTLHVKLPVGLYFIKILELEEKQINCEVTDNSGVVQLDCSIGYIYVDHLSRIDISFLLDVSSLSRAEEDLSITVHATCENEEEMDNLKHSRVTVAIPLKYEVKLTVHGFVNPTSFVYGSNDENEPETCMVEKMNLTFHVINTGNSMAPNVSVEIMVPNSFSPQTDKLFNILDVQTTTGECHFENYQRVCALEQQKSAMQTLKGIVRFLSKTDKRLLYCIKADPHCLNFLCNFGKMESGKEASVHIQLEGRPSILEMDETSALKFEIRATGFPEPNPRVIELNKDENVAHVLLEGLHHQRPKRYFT
Chain of α4β7 integrin (P26010 20-723 limits assumed): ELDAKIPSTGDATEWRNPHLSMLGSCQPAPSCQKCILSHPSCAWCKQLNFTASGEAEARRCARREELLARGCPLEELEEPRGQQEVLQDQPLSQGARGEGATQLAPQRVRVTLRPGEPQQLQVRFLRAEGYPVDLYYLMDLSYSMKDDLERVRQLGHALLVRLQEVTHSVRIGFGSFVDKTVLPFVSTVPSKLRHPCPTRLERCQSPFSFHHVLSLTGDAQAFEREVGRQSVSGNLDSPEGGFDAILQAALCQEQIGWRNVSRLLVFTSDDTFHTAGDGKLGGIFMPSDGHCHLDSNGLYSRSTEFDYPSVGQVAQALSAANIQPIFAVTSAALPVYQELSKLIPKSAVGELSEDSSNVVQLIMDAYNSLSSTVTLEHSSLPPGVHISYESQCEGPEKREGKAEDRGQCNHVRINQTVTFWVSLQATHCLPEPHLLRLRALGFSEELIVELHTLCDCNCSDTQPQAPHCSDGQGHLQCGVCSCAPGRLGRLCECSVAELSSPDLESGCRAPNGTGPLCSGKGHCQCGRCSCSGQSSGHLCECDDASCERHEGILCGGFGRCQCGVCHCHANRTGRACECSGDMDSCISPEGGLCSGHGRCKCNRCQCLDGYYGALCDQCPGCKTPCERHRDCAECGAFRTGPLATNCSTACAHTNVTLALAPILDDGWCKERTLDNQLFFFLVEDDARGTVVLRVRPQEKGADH
For orientation: ELISA stands for enzyme-linked immunosorbent assay.

Another series has as its system αEβ7 integrin. Description: FACS binding in cynomolgus monkey blood (α4β7 / αEβ7 expressing cells). The format is cell-based. The settings on record: cynomolgus monkey blood. The method, then:
Blood from cynomolgus monkeys was also analyzed by FACS.
Binding to αEβ7 integrin in cyno blood was also tested. Cyno blood was incubated with 1 nM Peptide X-Alexa 647, and cells expressing α4β7 or αEβ7 were analyzed by FACS. […] Binding to α4β7 was specific, because it could be blocked in the presence of a large excess (1 uM) of unlabeled Peptide X. Therefore under these conditions, it was concluded that Peptide X binds α4β7, not αEβ7.
A general note: Flow cytometry measures light scatter and fluorescence of single cells or particles in a stream.

Series [1] has as its system C57BL/6 male mice, DSS colitis. The format is in vivo. The method, then:
Colitis was induced in C57BL/6 male mice (10 animals per group) by exposure to 3% DSS-treated drinking water from day 0 to day 5, when animals were shifted to normal drinking water. Once daily, animal deaths were recorded, and surviving animals were weighed and assessed visually for the presence of diarrhea and/or bloody stool. Immediately prior to sacrifice on day 9, colitis severity was assessed in all animals using video endoscopy, and the resulting images were scored for colitis severity by an observer blinded to group identity.
Starting on day 0, mice were given twice-daily oral doses of either a vehicle/sham control (Group 1) or Peptide X (Group 2: 10 mg/kg, PO, BID). On day 9, only the AM treatment dose was administered. Animals in Group 2 also were administered Peptide X in their drinking water at a concentration of 0.2 mg/mL. The drinking water bottle weights for Groups 1 and 2 were measured, and water consumption was used to estimate the peptide dose ingested via the drinking water. Based on daily water consumption, the average daily Peptide X dose from the combination of oral gavage and drinking water was estimated to be 49 mg/kg.
Mice were sacrificed on day 9, approximately four hours after the final of gavage dose administration. Spleen, Peyer's patches (PP), mesenteric lymph nodes (MLN), and blood were collected from each animal and processed for FACS analysis of α4 and β7 expression on TH memory cells. Takedown and FACS analysis occurred on the same day.
For PK measurements, colon sections from the proximal and distal colon were collected at ˜4 hours after the last AM dose and analyzed by mass spectrometry. Exposure in the proximal colon was approximately 3-fold higher than that in the distal colon (FIG. 12). The concentration of Peptide X in the blood was 84-fold and 31-fold lower compared to that in the proximal and distal colon, respectively. Nonetheless at this time point, the plasma concentration was ˜80-fold greater than the Peptide IC50 value for blocking α4β7 binding to MAdCAM.

The test system of series [2] is C57BL/6 mice, DSS colitis. Put plainly: Additional 9 day DSS colitis studies. The format is in vivo, mouse. The protocol: In this 9 day DSS colitis study, C57BL/6 mice were treated with 3% DSS from Day 1 to Day 6, and switched to normal water until Day 10. Daily dosing was PO BID plus drinking water for Peptide X, and 25 mg/kg IP every 3 days for the anti-α4β7 antibody DATK32. PP and blood were collected and levels of α4β7+ memory T cells analyzed by FACS.

Series [3] has as its target T1, αLβ2 (Homo sapiens, UniProt P05107+P20701). Description: IC50 for αLβ2 (assay not further described). The protocol: Biochemical competition ELISA assays were performed for α4β7 and α4β1 integrins. The ELISA assay for α4β7 is based on binding of MAdCAM-1 to immobilized α4β7, whereas the α4β1 ELISA relies on binding of soluble α4β1 to immobilized VCAM-1. These assays are described in Example 2. Under 1 mM Mg^2+ binding conditions, the IC50 for Peptide X was 3 nM and >10,000 nM for α4β7 and α4β1, respectively. In addition, the IC50 for Peptide X was >100 uM for both α4β1 and αLβ2. The IC50 of Peptide X for α4β7 T cells was 1 nM.

Series [4] deals with T1, αLβ2. Description: PBMC memory T cell adhesion to ICAM-1. The format is cell-based. Set-up: endogenous in cells. The conditions noted are these: memory T cells isolated from human PBMC donors; read-out: IC50 (nM), memory T cells, Ligand ICAM-1.
[5] abbreviates: 10 mg/kg PO BID plus 0.2 mg/mL in drinking water, day 9.

Numbered stars: 1 amine (or outer) side, 2 acyl side, 3 side chain; on linkers, the order of the positions; unused ones are H or OH. Bridge positions count the residues as written; N and C are the ends. Square brackets hold non-standard residues; d marks the D form. Peptide text beside a SMILES is read from it. I, II: the chains in the order shown. ξ: configuration not given here. Phe(4-tBu) = CC(C)(C)c1ccc(C[C@H](N)C(=O)O)cc1; Diglycolyl = O=C(COCC(=O)[*:2])[*:1]; NMeR = CN[C@@H](CCCNC(=N)N)C(=O)O; β3hE = N[C@@H](CCC(=O)O)CC(=O)O; Thr(3ξ) = CC(O)[C@H](N)C(=O)O; Pen = CC(C)(S)[C@H](N)C(=O)O Bounds are passed on as bounds.

T1 sequence (P20701 26-1170): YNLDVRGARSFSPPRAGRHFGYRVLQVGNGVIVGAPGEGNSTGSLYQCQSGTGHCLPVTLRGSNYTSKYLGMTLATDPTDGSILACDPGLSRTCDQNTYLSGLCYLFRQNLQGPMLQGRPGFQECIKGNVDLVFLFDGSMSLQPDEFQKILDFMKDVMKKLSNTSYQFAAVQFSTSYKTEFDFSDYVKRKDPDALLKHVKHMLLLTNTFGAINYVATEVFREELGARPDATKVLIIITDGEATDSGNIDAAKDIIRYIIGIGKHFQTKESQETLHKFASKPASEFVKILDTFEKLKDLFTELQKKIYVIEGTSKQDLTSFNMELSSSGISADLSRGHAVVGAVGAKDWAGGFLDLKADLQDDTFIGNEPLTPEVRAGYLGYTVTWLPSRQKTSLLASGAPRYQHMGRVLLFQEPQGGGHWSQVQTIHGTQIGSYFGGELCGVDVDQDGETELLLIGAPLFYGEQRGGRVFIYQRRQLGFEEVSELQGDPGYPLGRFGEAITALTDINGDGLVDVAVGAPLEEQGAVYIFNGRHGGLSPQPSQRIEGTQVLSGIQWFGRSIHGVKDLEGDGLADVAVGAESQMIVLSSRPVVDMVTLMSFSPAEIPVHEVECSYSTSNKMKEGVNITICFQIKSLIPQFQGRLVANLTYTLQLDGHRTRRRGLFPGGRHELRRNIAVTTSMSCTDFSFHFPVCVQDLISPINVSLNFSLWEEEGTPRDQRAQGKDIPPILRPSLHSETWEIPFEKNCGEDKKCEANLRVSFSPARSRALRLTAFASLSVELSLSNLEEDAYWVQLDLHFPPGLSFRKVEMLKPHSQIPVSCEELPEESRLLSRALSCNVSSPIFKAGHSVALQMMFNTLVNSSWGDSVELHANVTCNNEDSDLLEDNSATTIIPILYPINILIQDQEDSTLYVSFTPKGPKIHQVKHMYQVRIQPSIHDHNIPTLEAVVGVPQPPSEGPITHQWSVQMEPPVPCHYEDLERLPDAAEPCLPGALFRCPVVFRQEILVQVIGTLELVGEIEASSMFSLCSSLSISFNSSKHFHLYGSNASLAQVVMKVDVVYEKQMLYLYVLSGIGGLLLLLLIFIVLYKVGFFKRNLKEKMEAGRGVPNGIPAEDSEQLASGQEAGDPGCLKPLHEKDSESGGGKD
T1 sequence (P05107 23-769): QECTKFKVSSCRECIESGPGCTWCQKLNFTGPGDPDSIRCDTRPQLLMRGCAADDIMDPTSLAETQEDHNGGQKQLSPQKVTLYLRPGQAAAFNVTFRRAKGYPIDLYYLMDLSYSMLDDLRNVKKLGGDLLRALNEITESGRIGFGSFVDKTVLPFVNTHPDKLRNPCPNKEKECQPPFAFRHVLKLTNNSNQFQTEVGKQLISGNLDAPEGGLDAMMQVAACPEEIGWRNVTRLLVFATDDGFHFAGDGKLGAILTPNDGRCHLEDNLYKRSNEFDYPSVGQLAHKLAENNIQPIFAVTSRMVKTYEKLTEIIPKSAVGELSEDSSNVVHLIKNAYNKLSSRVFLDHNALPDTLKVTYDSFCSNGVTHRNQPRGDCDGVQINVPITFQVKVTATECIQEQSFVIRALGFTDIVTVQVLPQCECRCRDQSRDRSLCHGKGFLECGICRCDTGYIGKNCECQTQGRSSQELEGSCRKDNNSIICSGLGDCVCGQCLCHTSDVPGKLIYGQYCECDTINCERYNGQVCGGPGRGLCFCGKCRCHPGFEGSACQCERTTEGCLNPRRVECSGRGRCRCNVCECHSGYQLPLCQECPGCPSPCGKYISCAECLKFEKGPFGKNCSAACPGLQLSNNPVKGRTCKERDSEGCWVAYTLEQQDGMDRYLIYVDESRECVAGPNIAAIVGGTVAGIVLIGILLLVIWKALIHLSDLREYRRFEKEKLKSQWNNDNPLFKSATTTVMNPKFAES

Take `CC(=O)N[C@@H]1C(=O)N(C)[C@@H](CCCNC(=N)N)C(=O)N[C@@H](CO)C(=O)N[C@@H](CC(=O)O)C(=O)N[C@@H](C(C)O)C(=O)N[C@@H](CC(C)C)C(=O)N[C@H](C(=O)N[C@@H](Cc2ccc(C(C)(C)C)cc2)C(=O)N[C@@H](CCC(=O)O)CC(=O)N[C@H](CCCCNC(=O)COCC(=O)NCCCC[C@@H](NC(=O)C[C@H](CCC(=O)O)NC(=O)[C@H](Cc2ccc(C(C)(C)C)cc2)NC(=O)[C@H]2NC(=O)[C@H](CC(C)C)NC(=O)[C@H](C(C)O)NC(=O)[C@H](CC(=O)O)NC(=O)[C@H](CO)NC(=O)[C@H](CCCNC(=N)N)N(C)C(=O)[C@@H](NC(C)=O)C(C)(C)SSC2(C)C)C(N)=O)C(N)=O)C(C)(C)SSC1(C)C` (stereo partly drawn) [Peptide X, [Ac-Pen-(N-Me-Arg)-Ser-Asp-Thr-Leu-Pen-(Phe(4-tBu))-(β-homoGlu)-(D-Lys)]2-DIG] (I: Ac-[Pen][NMeR]SD[Thr(3ξ)]L[Pen][Phe(4-tBu)][β3hE][dK]-NH2 / II: Ac-[Pen][NMeR]SD[Thr(3ξ)]L[Pen][Phe(4-tBu)][β3hE][dK]-NH2; disulfide I:1-I:7, II:1-II:7; linker I:10-II:10 via Diglycolyl): the Schild slope at α4β7 integrin is recorded as around 1. The Kb on α4β7 integrin (estimated, read-out: equilibrium dissociation constant (KB)) is 0.001 µM. Also, the “binding site on α4β7 relative to vedolizumab” value in the series on αEβ7 integrin was “binds to a site on α4β7 that is distinct from the binding site for vedolizumab”. In addition, in series [1] (setting [5]), the “endoscopy score (mean±SD)” value was 1.78±1.5 and the “reduction of endoscopy scores vs vehicle” value was found to be 32%. Also, the “effect on weight loss, fluid intake, colon weight or length, presence of bloody stool and diarrhea” value in series [1] (10 mg/kg PO BID plus drinking water) is “no significant effect”. Moreover, the “visual assessment of endoscopy images” value in series [1] (compared to the vehicle control) is “reduced colonic friability and improved mucosal healing”. The “Exposure in the proximal colon higher than in the distal colon” value in series [1] (mouse, in vivo) was “approximately 3 fold”. In addition, in series [1] (vs vehicle, day 9), the “decrease in percentage of α4β7+ memory cells relative to total cells in Peyer's Patches” value is reported as 55%, the “decrease in percentage of α4β7+ memory cells relative to total cells in the MLN” value is 23%, the “increase in total α4β7 memory cells per mL blood” value stood at 42% and the “increase in total α4β7 memory cells recovered from the spleen” value was found to be 73%. Besides, the “body weight loss and mucosal injury as assessed by endoscopy” value in series [2] (DSS mice orally dosed daily for 9 days) was “dose-dependent reduction in body weight loss and mucosal injury”. The “CD4+CD44highCD45RBlowβ7+ T cells in MLN, Peyer's Patches, spleen and blood” value in series [2] (DSS mice orally dosed daily for 9 days, FACS) is “dose dependent reduction”. The “α4β7+ T cells in gut lymphoid tissues and blood” value in series [2] (PO BID plus drinking water) was “reduced α4β7+ T cells in gut lymphoid tissues and redirected them to blood”. Besides, at αLβ2 [3], the half-maximal inhibitory concentration (IC50) (as a rule, the concentration that inhibits the measured activity by half) was above 100 µM. Further, the IC50 on αLβ2 [4] is above 100000 nM.
